{"source": "patent US12398375B2", "about": "“Methods for improved poxvirus yields” (priority 2018, dated 2025)", "key": {"CRM1": {"biological_target": "CRM1 (Homo sapiens, UniProt O14980)", "sequence (O14980 whole entry)": "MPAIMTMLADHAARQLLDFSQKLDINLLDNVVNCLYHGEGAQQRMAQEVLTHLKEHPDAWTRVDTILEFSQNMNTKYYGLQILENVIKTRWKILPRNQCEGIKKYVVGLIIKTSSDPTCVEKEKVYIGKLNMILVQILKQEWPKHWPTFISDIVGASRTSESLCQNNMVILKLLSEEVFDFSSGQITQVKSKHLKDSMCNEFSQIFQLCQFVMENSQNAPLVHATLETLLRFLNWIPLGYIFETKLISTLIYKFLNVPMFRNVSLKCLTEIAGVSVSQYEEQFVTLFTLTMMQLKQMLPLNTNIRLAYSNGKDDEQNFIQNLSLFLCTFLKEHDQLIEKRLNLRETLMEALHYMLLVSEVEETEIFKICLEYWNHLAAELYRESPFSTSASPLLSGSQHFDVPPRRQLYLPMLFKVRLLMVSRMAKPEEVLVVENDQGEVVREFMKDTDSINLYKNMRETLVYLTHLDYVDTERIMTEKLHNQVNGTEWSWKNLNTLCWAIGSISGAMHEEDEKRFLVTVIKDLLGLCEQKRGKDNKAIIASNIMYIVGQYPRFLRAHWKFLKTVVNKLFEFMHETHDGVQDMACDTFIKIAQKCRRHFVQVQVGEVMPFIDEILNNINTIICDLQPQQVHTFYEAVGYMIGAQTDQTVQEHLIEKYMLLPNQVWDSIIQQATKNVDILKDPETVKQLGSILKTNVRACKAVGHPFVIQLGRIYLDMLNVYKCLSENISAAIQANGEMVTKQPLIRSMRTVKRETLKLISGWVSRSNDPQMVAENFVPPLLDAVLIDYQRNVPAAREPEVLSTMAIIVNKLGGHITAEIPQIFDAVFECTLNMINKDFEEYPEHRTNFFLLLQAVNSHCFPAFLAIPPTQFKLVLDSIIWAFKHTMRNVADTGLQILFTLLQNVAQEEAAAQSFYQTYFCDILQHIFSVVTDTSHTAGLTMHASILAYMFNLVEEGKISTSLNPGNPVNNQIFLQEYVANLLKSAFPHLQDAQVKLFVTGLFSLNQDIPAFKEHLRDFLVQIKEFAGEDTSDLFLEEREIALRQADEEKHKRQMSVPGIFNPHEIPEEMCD", "settings": "reported (Dickmanns et al. 2015); cited from earlier work"}, "[1]": {"tested_on": "MYXV expressing a GFP reporter gene (vMyx-GFP) in human A549 cells", "assay": "MYXV reporter gene (GFP) expression in human A549 cells, fluorescence microscopy", "format": "cell-based, Myxoma virus", "settings": "human A549 cells pre-treated 1 h with different concentrations; vMyx-GFP MOI 1.0, 0.1 or 0.01; images at 48 h and 72 h post infection"}, "[2]": {"tested_on": "vMyx-GFP in human A549 cells", "assay": "MYXV progeny virus titration assay (A549 infection, titrated on RK13 cells)", "format": "cell-based, Myxoma virus", "settings": "for levels of progeny virus (MYXV titers): A549 cells"}, "[3]": {"tested_on": "VACV expressing GFP (VACV-GFP) in human A549 cells", "format": "cell-based, vaccinia virus"}, "[4]": {"tested_on": "VACV-GFP in human A549 cells", "format": "cell-based, vaccinia virus"}, "HeLa cells": {"tested_on": "HeLa cells", "settings": "cited from earlier work"}, "[5]": {"settings": "vMyx-GFP MOI 0.1 or 0.01, harvested after 48 h or 72 h, FIGS. 6A-6B"}, "[6]": {"settings": "vMyx-GFP MOI 1.0, 0.1 or 0.01, inhibitor 0.001, 0.01 or 0.1 μM, harvested after 48 h, FIGS. 5A-5D"}}, "data": [{"molecule": "Anguinomycin", "values": [{"measurement": "concentration that shuts down CRM1-mediated nuclear protein export", "setting": "CRM1", "result": "above 10 nM"}]}, {"molecule": "Ratjadone A", "values": [{"measurement": "MYXV replication, as indicated by reporter gene expression (GFP fluorescence)", "setting": "[1]", "result": "enhanced MYXV replication"}, {"measurement": "levels of progeny virus (MYXV titers)", "setting": "[2]; [5]", "result": "higher levels of progeny virus"}, {"measurement": "levels of progeny virus (MYXV titers)", "setting": "[2]; [6]", "result": "higher levels of progeny virus"}]}, {"molecule": "CCC(=C/[C@H](C)C/C=C/C(C)=C/[C@@H](C)C(=O)[C@@H](C)[C@H](O)[C@@H](C)C/C(C)=C/C(=O)O)/C=C/[C@@H]1OC(=O)C=C[C@@H]1C", "note": "[Leptomycin B]", "values": [{"measurement": "MYXV replication, as indicated by reporter gene expression (GFP fluorescence)", "setting": "[1]", "result": "enhanced MYXV replication"}, {"measurement": "levels of progeny virus (MYXV titers)", "setting": "[2]; [5]", "result": "higher levels of progeny virus"}, {"measurement": "levels of progeny virus (MYXV titers)", "setting": "[2]; [6]", "result": "higher levels of progeny virus"}, {"measurement": "progeny virus production enhancement compared to the other tested drugs", "setting": "[2]; FIGS. 6A and 6B, MOI 0.1 or 0.01, 48 h or 72 h", "result": "highest progeny virus production enhancement"}, {"measurement": "VACV replication, as indicated by reporter gene expression (GFP fluorescence)", "setting": "[3]", "result": "enhanced VACV replication"}, {"measurement": "levels of progeny virus (VACV titers)", "setting": "[4]", "result": "higher levels of progeny virus"}, {"measurement": "concentration that arrests cells at the G1 phase", "setting": "HeLa cells", "result": 50, "unit": "pg/mL"}]}, {"molecule": "CC(/C=C/C1CC=CC(=O)O1)=C\\C(C)C/C=C/C(C)=C/C(C)C(=O)C(C)C(O)C(C)C/C(C)=C/C(=O)O", "note": "(stereo not shown) [Anguinomycin A]", "values": [{"measurement": "MYXV replication, as indicated by reporter gene expression (GFP fluorescence)", "setting": "[1]", "result": "enhanced MYXV replication"}, {"measurement": "levels of progeny virus (MYXV titers)", "setting": "[2]; [5]", "result": "higher levels of progeny virus"}, {"measurement": "levels of progeny virus (MYXV titers)", "setting": "[2]; [6]", "result": "higher levels of progeny virus"}]}, {"molecule": "CC(/C=C/C[C@@H](C)/C=C(C)/C=C/[C@@H]1OC(=O)C=C[C@@H]1C)=C\\[C@@H](C)C(=O)[C@@H](C)[C@H](O)[C@@H](C)C/C(C)=C/C(=O)O", "note": "[Leptomycin A]", "values": [{"measurement": "MYXV replication, as indicated by reporter gene expression (GFP fluorescence)", "setting": "[1]", "result": "enhanced myxoma virus (MYXV) replication"}, {"measurement": "levels of progeny virus (MYXV titers)", "setting": "[2]; [5]", "result": "higher levels of progeny virus"}, {"measurement": "levels of progeny virus (MYXV titers)", "setting": "[2]; [6]", "result": "higher levels of progeny virus"}, {"measurement": "VACV replication, as indicated by reporter gene expression (GFP fluorescence)", "setting": "[3]", "result": "enhanced VACV replication"}, {"measurement": "levels of progeny virus (VACV titers)", "setting": "[4]", "result": "higher levels of progeny virus"}]}]}
